According to the NIST ThermoML archive (doi:10.1021/je0400052):

Tests used:
[1] = xn = mol fraction of the nth substance listed; conditions: 101.3 kPa, Liquid
[2] = refractive index (Na D-line) (dimensionless); xn = mol fraction of the nth substance listed; conditions: 101.3 kPa, Liquid

CCOC(=O)c1ccccc1 [ethyl benzoate] + Cc1ccc(C)cc1
Conditions | mass density, [1] [kg/m3] | refractive index, [2] | viscosity, [1] [mPa·s]
303.15 K, x1 = 0.0916 | 871.1 | 1.4931 | 0.622
303.15 K, x1 = 0.1757 | 889.3 | 1.4939 | 0.679
303.15 K, x1 = 0.2719 | 908.4 | 1.4951 | 0.765
303.15 K, x1 = 0.3616 | 925.3 | 1.4957 | 0.837
303.15 K, x1 = 0.4681 | 947.1 | 1.4965 | 0.951
303.15 K, x1 = 0.5703 | 964.8 | 1.497 | 1.045
303.15 K, x1 = 0.673 | 982.8 | 1.4983 | 1.181
303.15 K, x1 = 0.7781 | 1000.8 | 1.4988 | 1.325
303.15 K, x1 = 0.8651 | 1022.8 | 1.4995 | 1.469
303.15 K, x1 = 0.937 | 1040.8 | 1.5001 | 1.603
313.15 K, x1 = 0.0916 | 863 | 1.4912 | 0.55
313.15 K, x1 = 0.1757 | 880.9 | 1.4924 | 0.606
313.15 K, x1 = 0.2719 | 899.9 | 1.4948 | 0.686
313.15 K, x1 = 0.3616 | 917.3 | 1.495 | 0.739
313.15 K, x1 = 0.4681 | 937.5 | 1.4956 | 0.825
313.15 K, x1 = 0.5703 | 956 | 1.4963 | 0.9
313.15 K, x1 = 0.673 | 974 | 1.4972 | 1.008
313.15 K, x1 = 0.7781 | 993.2 | 1.4979 | 1.126
313.15 K, x1 = 0.8651 | 1010.2 | 1.4989 | 1.239
313.15 K, x1 = 0.937 | 1028.2 | 1.4996 | 1.339
